Key:
[1] = test system: surinam grass; test: Test B pre/postemergence surinam grass; type: in vivo, Brachiaria decumbens
Summary of the method: (§1)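 Test chemicals in a non-phytotoxic solvent mixture with surfactant were sprayed preemergence onto planted seeds and postemergence onto plants 2 to 18 cm tall (1- to 4-leaf stage). After twelve to sixteen days in a greenhouse, injury was visually rated against untreated controls from 0 (no effect) to 10 (complete control).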

[2] = test system: corn; test: Test B pre/postemergence corn; type: in vivo, Zea mays
Summary of the method: as §1

[3] = test system: rape; test: Test B pre/postemergence rape; type: in vivo, Brassica napus; conditions: for Plant response rating, Rape: scale of 0 to 10 where 0 is no effect and 10 is complete control
Summary of the method: as §1

[4] = test system: blackgrass; test: Test B pre/postemergence blackgrass; type: in vivo, Alopecurus myosuroides
Summary of the method: as §1

[5] = test system: morningglory; test: Test B pre/postemergence morningglory; type: in vivo, Ipomoea hederacea; conditions: for Plant response rating, Morningglory: scale of 0 to 10 where 0 is no effect and 10 is complete control
Summary of the method: as §1

[6] = test system: wheat; test: Test B pre/postemergence wheat; type: in vivo, Triticum aestivum; conditions: for Plant response rating, Wheat: scale of 0 to 10 where 0 is no effect and 10 is complete control
Summary of the method: as §1

[7] = test system: rice; test: Test B flood test rice; type: in vivo, Oryza sativa
Summary of the method: (§2)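 Each value is a visual injury score relative to controls, with 10 meaning complete control and 0 no effect. Evaluation took place twelve to sixteen days after the 2-leaf-stage plants were treated and kept in the greenhouse.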

[8] = test system: bamyardgrass; test: Test B flood test barnyardgrass; type: in vivo, Echinochloa crus-galli
Summary of the method: as §2

[9] = test system: wild oat; test: Test B pre/postemergence wild oat; type: in vivo, Avena fatua; conditions: for Plant response rating, Wild oats: scale of 0 to 10 where 0 is no effect and 10 is complete control
Summary of the method: as §1

[10] = test system: pigweed; test: Test B pre/postemergence pigweed; type: in vivo, Amaranthus retroflexus; conditions: for Plant response rating, Redroot pigweed: scale of 0 to 10 where 0 is no effect and 10 is complete control
Summary of the method: as §1

[11] = test system: giant foxtail; test: Test B pre/postemergence giant foxtail; type: in vivo, Setaria faberii
Summary of the method: as §1

[12] = test system: sugar beet; test: Test B pre/postemergence sugar beet; type: in vivo, Beta vulgaris; conditions: for Plant response rating, Sugarbeets: scale of 0 to 10 where 0 is no effect and 10 is complete control
Summary of the method: as §1

[13] = test system: cocklebur; test: Test B pre/postemergence cocklebur; type: in vivo, Xanthium strumarium
Summary of the method: as §1

[14] = test system: crabgrass; test: Test B pre/postemergence crabgrass; type: in vivo, Digitaria sanguinalis
Summary of the method: as §1

[15] = test system: purple nutsedge; test: Test B pre/postemergence purple nutsedge; type: in vivo, Cyperus rotundus; conditions: for Plant response rating, Nutsedge: scale of 0 to 10 where 0 is no effect and 10 is complete control
Summary of the method: as §1

[16] = Postemergence, Rate 500 g/ha, scale of 0 to 10 where 0 is no effect and 10 is complete control
[17] = Preemergence, Rate 62 g/ha, scale of 0 to 10 where 0 is no effect and 10 is complete control
[18] = Preemergence, Rate 125 g/ha, scale of 0 to 10 where 0 is no effect and 10 is complete control
[19] = Preemergence, Rate 250 g/ha, scale 0 to 10, 0 is no effect, 10 is complete control
[20] = Preemergence, Rate 500 g/ha, scale 0 to 10, 0 is no effect, 10 is complete control
[21] = Rate 62 g/ha, Postemergence, scale 0 to 10, 0 no effect, 10 complete control
[22] = Rate 125 g/ha, Postemergence, scale 0 to 10, 0 is no effect, 10 is complete control
[23] = Postemergence, Rate 250 g/ha, scale 0 to 10
[24] = Rate 62 g/ha, flood test species, Pre-emergence, visual evaluation after twelve to sixteen days
[25] = Rate 125 g/ha, under heading Pre-emergence, flood test species, visual evaluation after twelve to sixteen days
[26] = Rate 250 g/ha, Pre-emergence (flood test species), scale 0 to 10, 0 is no effect, 10 is complete control
[27] = Rate 500 g/ha, Pre-emergence, flood test species, scale 0 to 10 (0 no effect, 10 complete control)

## C=CC(OC)n1c(=O)on(C(=O)N(c2ccc(F)cc2)C(C)C)c1=O (centres unmarked) [Compound 452]
[1]; Postemergence, Rate 250 g/ha, scale 0 to 10, 0 no effect, 10 complete control
  B. signalgrass plant response rating: 0
[1]; [16]
  B. signalgrass plant response rating: 0
[1]; [17]
  Plant response rating, B. signalgrass: 0
[1]; [18]
  Plant response rating, B. signalgrass: 0
[1]; [19]
  B. signalgrass plant response rating: 0
[1]; [20]
  B. signalgrass plant response rating: 0
[1]; [21]
  B. signalgrass plant response rating: 0
[1]; [22]
  B. signalgrass plant response rating: 0
[2]; [23]
  Corn plant response rating: 0
[2]; [16]
  Corn plant response rating: 0
[2]; [17]
  Plant response rating, Corn: 0
[2]; [18]
  Plant response rating, Corn: 0
[2]; [19]
  Corn plant response rating: 0
[2]; [20]
  Corn plant response rating: 0
[2]; [21]
  Corn plant response rating: 0
[2]; [22]
  Corn plant response rating: 0
[3]; [23]
  Rape plant response rating: 0
[3]; Preemergence, Rate 62 g/ha
  Plant response rating, Rape: 0
[3]; Preemergence, Rate 125 g/ha
  Plant response rating, Rape: 0
[3]; [19]
  Rape plant response rating: 0
[3]; [20]
  Rape plant response rating: 0
[3]; [21]
  Rape plant response rating: 0
[3]; [22]
  Rape plant response rating: 0
[4]; [23]
  Blackgrass plant response rating: 3
[4]; [16]
  Blackgrass plant response rating: 5
[4]; [17]
  Plant response rating, Blackgrass: 0
[4]; [18]
  Plant response rating, Blackgrass: 0
[4]; [19]
  Blackgrass plant response rating: 2
[4]; [20]
  Blackgrass plant response rating: 2
[4]; [21]
  Blackgrass plant response rating: 0
[4]; [22]
  Blackgrass plant response rating: 0
[5]; [23]
  Morningglory plant response rating: 2
[5]; Preemergence, Rate 62 g/ha
  Plant response rating, Morningglory: 0
[5]; Preemergence, Rate 125 g/ha
  Plant response rating, Morningglory: 0
[5]; [19]
  Morningglory plant response rating: 0
[5]; [20]
  Morningglory plant response rating: 0
[5]; [21]
  Morningglory plant response rating: 1
[5]; [22]
  Morningglory plant response rating: 2
[6]; [23]
  Wheat plant response rating: 0
[6]; Preemergence, Rate 62 g/ha
  Plant response rating, Wheat: 0
[6]; Preemergence, Rate 125 g/ha
  Plant response rating, Wheat: 0
[6]; [19]
  Wheat plant response rating: 0
[6]; [20]
  Wheat plant response rating: 0
[6]; [21]
  Wheat plant response rating: 0
[6]; [22]
  Wheat plant response rating: 0
[7]; [24]
  Plant response rating, Rice (0 to 10 scale, 0 is no effect, 10 is complete control): 0
[7]; [25]
  Rice plant response rating (0 to 10 scale, 0 is no effect, 10 is complete control): 0
[7]; [26]
  Rice plant response rating: 0
[7]; [27]
  Rice plant response rating: 0
[8]; [24]
  Plant response rating, Barnyardgrass (0 to 10 scale, 0 is no effect, 10 is complete control): 0
[8]; [25]
  Barnyardgrass plant response rating (0 to 10 scale, 0 is no effect, 10 is complete control): 0
[8]; [26]
  Barnyardgrass plant response rating: 0
[8]; [27]
  Barnyardgrass plant response rating: 0
[9]; [23]
  Wild oats plant response rating: 0
[9]; Preemergence, Rate 62 g/ha
  Plant response rating, Wild oats: 0
[9]; Preemergence, Rate 125 g/ha
  Plant response rating, Wild oats: 0
[9]; [19]
  Wild oats plant response rating: 0
[9]; [20]
  Wild oats plant response rating: 0
[9]; [21]
  Wild oats plant response rating: 0
[9]; [22]
  Wild oats plant response rating: 0
[10]; [23]
  Redroot pigweed plant response rating: 0
[10]; Preemergence, Rate 62 g/ha
  Plant response rating, Redroot pigweed: 0
[10]; Preemergence, Rate 125 g/ha
  Plant response rating, Redroot pigweed: 0
[10]; [19]
  Redroot pigweed plant response rating: 0
[10]; [20]
  Redroot pigweed plant response rating: 0
[10]; [21]
  Redroot pigweed plant response rating: 0
[10]; [22]
  Redroot pigweed plant response rating: 0
[11]; [23]
  Giant foxtail plant response rating: 7
[11]; [16]
  Giant foxtail plant response rating: 7
[11]; [17]
  Plant response rating, Giant foxtail: 2
[11]; [18]
  Plant response rating, Giant foxtail: 3
[11]; [19]
  Giant foxtail plant response rating: 4
[11]; [20]
  Giant foxtail plant response rating: 7
[11]; [21]
  Giant foxtail plant response rating: 2
[11]; [22]
  Giant foxtail plant response rating: 4
[12]; [23]
  Sugarbeets plant response rating: 0
[12]; Preemergence, Rate 62 g/ha
  Plant response rating, Sugarbeets: 0
[12]; Preemergence, Rate 125 g/ha
  Plant response rating, Sugarbeets: 0
[12]; [19]
  Sugarbeets plant response rating: 0
[12]; [20]
  Sugarbeets plant response rating: 0
[12]; [21]
  Sugarbeets plant response rating: 0
[12]; [22]
  Sugarbeets plant response rating: 0
[13]; [23]
  Cocklebur plant response rating: 0
[13]; [16]
  Cocklebur plant response rating: 0
[13]; [17]
  Plant response rating, Cocklebur: 0
[13]; [18]
  Plant response rating, Cocklebur: 0
[13]; [19]
  Cocklebur plant response rating: 0
[13]; [20]
  Cocklebur plant response rating: 0
[13]; [21]
  Cocklebur plant response rating: 0
[13]; [22]
  Cocklebur plant response rating: 0
[14]; [23]
  Crabgrass plant response rating: 6
[14]; [16]
  Crabgrass plant response rating: 6
[14]; [17]
  Plant response rating, Crabgrass: 5
[14]; [18]
  Plant response rating, Crabgrass: 5
[14]; [19]
  Crabgrass plant response rating: 5
[14]; [20]
  Crabgrass plant response rating: 5
[14]; [21]
  Crabgrass plant response rating: 3
[15]; [23]
  Nutsedge plant response rating: 0
[15]; Preemergence, Rate 62 g/ha
  Plant response rating, Nutsedge: 0
[15]; Preemergence, Rate 125 g/ha
  Plant response rating, Nutsedge: 0
[15]; [19]
  Nutsedge plant response rating: 0
[15]; [20]
  Nutsedge plant response rating: 0
[15]; [21]
  Nutsedge plant response rating: 0
[15]; [22]
  Nutsedge plant response rating: 0
